Test results as given in patent publication US5466716A, “Liposomal trimethylsphingosine” (The Biomembrane Institute, priority 1994, dated 1995).
“Also recorded” adds a separate entry of the source. Like-named read-outs stand apart in the source and are kept apart here.

Experiments:
neutrophils = test: phagokinetic activity of neutrophils on gold sol-coated plates; format: cell-based, human; conditions: for activity at 4.5 µM / activity at 12 µM: Homo sapiens, Neutrophil; for activity at 4.5 µM: 2 h, read-out: Area Swept; for activity at 12 µM: read-out: Area Swept (recovery of phagokinetic activity)
Procedure: The phagokinetic activity of neutrophils on gold sol-coated plates can be determined by a technique essentially as taught in Albrecht-Buehler (Cell, 11, 395, 1977). […] Thus, the inhibitory effect of TMS on phagokinetic activity is not dependent on cytotoxicity.
.sctn. The area swept by neutrophils was determined in photographs of the
monolayers. The regions cleared by neutrophil movement were then cut out
Phagokinetic activity was observed by tracing tracks of neutrophils moving on a glass substrate covered with gold colloid particles. The technique was described originally by Albrecht-Buehler, supra, using 3T3 and other cell lines. Briefly, 22×22 mm square glass coverslips (Corning Glass Works, Corning, N.Y.) were dipped for 1 min into 1% BSA prepared in Milli Q water. The BSA solution was prepared fresh each day and passed through 0.20 μm Nalgene filters (Nalgene Labware Division, Rochester, N.Y.).
The coverslip then was drained by touching a Kim-wipe paper towel to its edge, dipped into 100% ethanol and rapidly and completely dried in a 85° C. hot airstream. The coverslip was placed in a 3.5 cm Falcon plastic dish. Then 5.4 ml of AuCl4 H and 18 ml of 36.5 mM Na2 CO3 were added to 33 ml of distilled water and heated. Immediately after reaching the boiling point, 5.4 ml of 0.1% formaldehyde in water were added quickly and mixed. The suspension of gold particles forming a brownish color was distributed immediately onto the dish (2 ml each) and the coverslip was incubated for 2 hr at 37° C.
Particle-coated coverslips were washed in PBS, then twice in RPMI 1640 and finally put in another 3.5 cm Falcon plastic dish containing 2 ml of RPMI 1640 with glutamate and pyruvate. The coverslips were stored at 4° C. and used within 24 hr after preparation.
The freshly-purified neutrophils (1×10^4 cells/plate) were added onto the colloid-coated coverslip. TMS and other effectors were added into the medium on the plate. As a control, the solvent of the effectors (50% ethanol) was added at an equal amount. At that concentration (0.1%), ethanol brought no significant effect on neutrophil activities. To observe cell recovery from exposure to the effectors, neutrophils (2×10^5 cells/ml) were pre-incubated at 37° C. with 12 μM of TMS, SPN and DMS, then distributed to the dish dropwise, diluting the effectors 200-fold. Incubation was conducted under 5% CO2 at 37° C. for 2 hr and terminated by adding 200 μl of 10% formaldehyde. Microscopic examination of each plate was performed with a Nikon microscope, connected to a Polaroid camera for recordings. Phagokinetic activity was measured by tracing the track of a neutrophil. The track was recorded with photographs, then the area was measured by cutting and weighing there swept area.

GMP-140 = GMP-140 expression on platelets (flow cytometry, mAb AC1.2); format: cell-based, human
Procedure: FIGS. 11A and 11B depict results of representative experiments assessing the percentage of platelets capable of binding an anti-GMP-140 antibody following exposure to various agents. The percentage binding activity was determined in a flow cytometer. SPN is sphingosine; H-7 is 1-(5-isoquinolinylsulfonyl)-2-methylpiperazine; Cal is calphostin-C; TMS is trimethylsphingosine; and DMS is dimethylsphingosine.
GMP-140 expression was determined by (i) flow cytometry with mAb AC1.2, which is directed to GMP-140 and obtained from Dr. Furie (Tufts Univ. Sch. Med., Boston, Mass.) and (ii) adhesion of HL60 cells on platelet-coated solid phase.
A suspension of platelets (1×10^8 /ml) in Tyrode's buffer was preincubated with inhibitor at pH 7.2, 37° C., for 5 minutes, then supplemented with activator, either thrombin (final concentration 1 U/ml) or phorbol 12-myristate 13-acetate (PMA (final concentration 10^-7 M), and the mixture was incubated at 37° C. for 10 minutes. Platelets were fixed with an equal volume of 2% (w/v) paraformaldehyde in PBS and washed 2 times with PBS containing 1% (w/v) BSA.
The paraformaldehyde-fixed platelets were incubated with 50 μl of mAb AC1.2 (2.5 μg/ml) at room temperature for 30 minutes. Platelets were washed 2 times with PBS containing 1% (w/v) BSA, supplemented with 50 μl of fluorescein isothiocyanate-labeled goat anti-mouse Ig (purchased from Tago Co., Burlingame, Calif.), incubated at room temperature for 30 minutes and again washed 2 times with PBS containing 1% (w/v) BSA. As a negative control, paraformaldehyde-fixed platelets were incubated with mouse IgG instead of mAb AC1.2 and treated as described above.
The platelets were analyzed in an Epics flow cytometer (Coulter Corp.) with suitable gating. To calculate the inhibitory effect of various reagents, the mean fluorescence intensity of resting platelets (obtained on incubation of platelets without activator) was subtracted from the value for the activated platelet sample.

[1] = Table IV, 12 μM preincubation then 200-fold dilution, control 100

In the case of `CCCCCCCCCCCCC/C=C/[C@@H](O)[C@H](CO)N(C)C` [DMS, (4E)-N,N-dimethyl-D-erythro-sphingosine], the activity at 4.5 µM (neutrophils; Table I, 4.5 μM, control 100) is reported as 26 ± 25%, the activity at 12 µM (neutrophils; [1]) is reported as 32 ± 19% and the “inhibition of GMP-140 expression” value (GMP-140; PMA-induced, 10-20 μM) is reported as “strongly inhibited GMP-140 expression”. The “inhibition of GMP-140 expression” value (GMP-140; thrombin-induced, FIG. 11A) was “strongly inhibited thrombin-induced GMP-140 expression”.

`CCCCCCCCCCCCC/C=C/[C@@H](O)[C@@H](N)CO` [SPN, sphingosine] was tested, and the activity at 4.5 µM (neutrophils) was 14 ± 7%, the activity at 12 µM (neutrophils) was 42 ± 24% and the “inhibition of GMP-140 expression” value (GMP-140; PMA-induced, FIG. 11B) was “Neither SPN nor H-7 showed inhibition”. For the same compound, the “inhibition of GMP-140 expression” value (GMP-140; thrombin-induced, FIG. 11A) was “no inhibition”.

For `CCCCCCCCCCCCC/C=C/[C@@H](O)[C@H](CO)[N+](C)(C)C` [TMS, N,N,N-trimethylsphingosine], the “suppression of phagokinetic activity” value (neutrophils; 1.5 μM) was “suppressed significantly”, the “suppression of phagokinetic activity” value (neutrophils; 4.5 μM) was “completely suppressed” and the “neutrophil migration (phagokinetic)” value (neutrophils; Example 9) was “inhibited neutrophil migration”. For the same compound, the activity at 4.5 µM (neutrophils; Table I, 4.5 μM, control 100) was 16 ± 18%, the activity at 12 µM (neutrophils; [1]) was 92 ± 34% and the “reversal of inhibitory effect on phagokinetic activity” value (neutrophils; medium replaced with TMS-free medium) was “reversed completely”. The “inhibition of GMP-140 expression” value (GMP-140; PMA-induced, 10-20 μM) was “strongly inhibited GMP-140 expression”, the GMP-140 expression (GMP-140; platelets preincubated with TMS) was “inhibits GMP-140 expression; also recorded: down-regulated or blocked” and the “inhibition of GMP-140 expression” value (GMP-140; thrombin-induced, 10-20 μM) was “strongly inhibited GMP-140 expression”.

For Calphostin C, the “Area Swept” value (neutrophils; Table I, 0.5 μM, control 100, 120 min) was 39 ± 11% and the “inhibition of GMP-140 expression” value (GMP-140; thrombin-induced, 10-20 μM) was “weak inhibition”.
